According to PubChem BioAssay (NCI):
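96-well plates; 48 h exposure; 5 concentrations. Endpoints by linear interpolation between flanking doses. Not reached: highest tested concentration assigned. Definition used: TGI = concentration required for complete inhibition of growth.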

Columns and labels:
Assay in all cases: NCI-60 cell line screen, 48 h
NCI/ADR-RES ovarian = system: NCI/ADR-RES ovarian
SN12C renal = system: SN12C renal
SF-295 CNS = system: SF-295 CNS
HCC-2998 colon = system: HCC-2998 colon
PC-3 prostate = system: PC-3 prostate
U251 CNS = system: U251 CNS
K-562 leukemia = system: K-562 leukemia
M14 melanoma = system: M14 melanoma
MALME-3M melanoma = system: MALME-3M melanoma
IGROV1 ovarian = system: IGROV1 ovarian
MDA-MB-435 = system: MDA-MB-435
UACC-257 melanoma = system: UACC-257 melanoma
SK-MEL-28 melanoma = system: SK-MEL-28 melanoma
SR leukemia = system: SR leukemia
NCI-H460 lung = system: NCI-H460 lung
RPMI-8226 leukemia = system: RPMI-8226 leukemia
A549 NSCLC = system: A549 NSCLC
BT-549 breast = system: BT-549 breast
ACHN renal = system: ACHN renal
KM12 colon = system: KM12 colon
SNB-19 CNS = system: SNB-19 CNS
COLO 205 colon = system: COLO 205 colon
NCI-H226 lung = system: NCI-H226 lung
MCF7 breast = system: MCF7 breast
786-0 renal = system: 786-0 renal
HOP-92 NSCLC = system: HOP-92 NSCLC
NCI-H522 lung = system: NCI-H522 lung
MDA-N = system: MDA-N
MOLT-4 leukemia = system: MOLT-4 leukemia
CCRF-CEM leukemia = system: CCRF-CEM leukemia
OVCAR-3 ovarian = system: OVCAR-3 ovarian
HCT-116 colon = system: HCT-116 colon
A498 renal = system: A498 renal
MDA-MB-231 breast = system: MDA-MB-231 breast
OVCAR-5 ovarian = system: OVCAR-5 ovarian
HOP-62 NSCLC = system: HOP-62 NSCLC
LOX IMVI melanoma = system: LOX IMVI melanoma
UO-31 renal = system: UO-31 renal
T-47D breast = system: T-47D breast
SK-MEL-2 melanoma = system: SK-MEL-2 melanoma
OVCAR-8 ovarian = system: OVCAR-8 ovarian
HL-60(TB) leukemia = system: HL-60(TB) leukemia
HS 578T breast = system: HS 578T breast
SK-MEL-5 melanoma = system: SK-MEL-5 melanoma
RXF 393 renal = system: RXF 393 renal
HT29 colon = system: HT29 colon
DU-145 prostate = system: DU-145 prostate
SF-268 CNS = system: SF-268 CNS
SF-539 CNS = system: SF-539 CNS
SNB-75 CNS = system: SNB-75 CNS
CAKI-1 renal = system: CAKI-1 renal
SW-620 colon = system: SW-620 colon
EKVX NSCLC = system: EKVX NSCLC
OVCAR-4 ovarian = system: OVCAR-4 ovarian
TK-10 renal = system: TK-10 renal
NCI-H23 lung = system: NCI-H23 lung
UACC-62 melanoma = system: UACC-62 melanoma
HCT-15 colon = system: HCT-15 colon

`O=C(Nc1cc2cc([N+](=O)[O-])ccc2oc1=O)c1cccs1` was tested. Which TGI (NCI/ADR-RES ovarian) did it give?
Its TGI is greater than 100 µM.

And the TGI (SN12C renal)?
Its TGI is greater than 100 µM.

What about the TGI (SF-295 CNS) of the same molecule?
The TGI was greater than 100 µM.

And the TGI (HCC-2998 colon)?
The TGI was greater than 100 µM.

And the TGI (PC-3 prostate)?
The TGI was greater than 100 µM.

What about the TGI (U251 CNS) of the same molecule?
Its TGI is greater than 100 µM.

And the TGI (K-562 leukemia)?
The TGI was greater than 100 µM.

What about the TGI (M14 melanoma) of the same molecule?
Its TGI is greater than 100 µM.

And the TGI (MALME-3M melanoma)?
The TGI was greater than 100 µM.

What about the TGI (IGROV1 ovarian) of the same molecule?
Its TGI is greater than 100 µM.

And the TGI (MDA-MB-435)?
The TGI was 70.8 µM.

And the TGI (UACC-257 melanoma)?
The TGI was greater than 100 µM.

What about the TGI (SK-MEL-28 melanoma) of the same molecule?
The TGI was greater than 100 µM.

What about the TGI (SR leukemia) of the same molecule?
The TGI was greater than 100 µM.

What about the TGI (NCI-H460 lung) of the same molecule?
Its TGI is greater than 100 µM.

And the TGI (RPMI-8226 leukemia)?
Its TGI is greater than 100 µM.

What about the TGI (A549 NSCLC) of the same molecule?
The TGI was greater than 100 µM.

What about the TGI (BT-549 breast) of the same molecule?
The TGI was greater than 100 µM.

And the TGI (ACHN renal)?
The TGI was greater than 100 µM.

What about the TGI (KM12 colon) of the same molecule?
The TGI was 72.9 µM.

What about the TGI (SNB-19 CNS) of the same molecule?
The TGI was greater than 100 µM.

What about the TGI (COLO 205 colon) of the same molecule?
Its TGI is 85.2 µM.

And the TGI (NCI-H226 lung)?
The TGI was greater than 100 µM.

And the TGI (MCF7 breast)?
Its TGI is 85.2 µM.

And the TGI (786-0 renal)?
The TGI was greater than 100 µM.

What about the TGI (HOP-92 NSCLC) of the same molecule?
Its TGI is greater than 100 µM.

What about the TGI (NCI-H522 lung) of the same molecule?
Its TGI is 84.7 µM.

And the TGI (MDA-N)?
The TGI was greater than 100 µM.

What about the TGI (MOLT-4 leukemia) of the same molecule?
The TGI was greater than 100 µM.

What about the TGI (CCRF-CEM leukemia) of the same molecule?
The TGI was 78.3 µM.

And the TGI (OVCAR-3 ovarian)?
The TGI was greater than 100 µM.

What about the TGI (HCT-116 colon) of the same molecule?
The TGI was greater than 100 µM.

What about the TGI (A498 renal) of the same molecule?
The TGI was greater than 100 µM.

What about the TGI (MDA-MB-231 breast) of the same molecule?
The TGI was greater than 100 µM.

And the TGI (OVCAR-5 ovarian)?
Its TGI is greater than 100 µM.

And the TGI (HOP-62 NSCLC)?
Its TGI is greater than 100 µM.

And the TGI (LOX IMVI melanoma)?
Its TGI is greater than 100 µM.

What about the TGI (UO-31 renal) of the same molecule?
Its TGI is greater than 100 µM.

And the TGI (T-47D breast)?
The TGI was greater than 100 µM.

And the TGI (SK-MEL-2 melanoma)?
Its TGI is greater than 100 µM.

What about the TGI (OVCAR-8 ovarian) of the same molecule?
Its TGI is greater than 100 µM.

What about the TGI (HL-60(TB) leukemia) of the same molecule?
The TGI was 44.5 µM.

And the TGI (HS 578T breast)?
The TGI was greater than 100 µM.

What about the TGI (SK-MEL-5 melanoma) of the same molecule?
The TGI was 45 µM.

What about the TGI (RXF 393 renal) of the same molecule?
Its TGI is 34.4 µM.

What about the TGI (HT29 colon) of the same molecule?
Its TGI is greater than 100 µM.

And the TGI (DU-145 prostate)?
The TGI was greater than 100 µM.

And the TGI (SF-268 CNS)?
Its TGI is greater than 100 µM.

What about the TGI (SF-539 CNS) of the same molecule?
The TGI was 69.9 µM.

What about the TGI (SNB-75 CNS) of the same molecule?
Its TGI is 16.5 µM.

And the TGI (CAKI-1 renal)?
The TGI was greater than 100 µM.

What about the TGI (SW-620 colon) of the same molecule?
The TGI was greater than 100 µM.

What about the TGI (EKVX NSCLC) of the same molecule?
The TGI was greater than 100 µM.

What about the TGI (OVCAR-4 ovarian) of the same molecule?
Its TGI is greater than 100 µM.

What about the TGI (TK-10 renal) of the same molecule?
Its TGI is greater than 100 µM.

What does the source list for `Cc1ccc(S(=O)(=O)NNC(=O)Nc2ccc([N+](=O)[O-])cc2)cc1`?
TGI (NCI/ADR-RES ovarian): > 100 µM; TGI (SN12C renal): > 100 µM; TGI (SF-295 CNS): > 100 µM; TGI (HCC-2998 colon): > 100 µM; TGI (PC-3 prostate): > 100 µM; TGI (NCI-H23 lung): > 100 µM; TGI (U251 CNS): > 100 µM; TGI (K-562 leukemia): > 100 µM; TGI (M14 melanoma): > 100 µM; TGI (MALME-3M melanoma): > 100 µM; TGI (IGROV1 ovarian): > 100 µM; TGI (MDA-MB-435): > 100 µM; TGI (UACC-257 melanoma): > 100 µM; TGI (SK-MEL-28 melanoma): > 100 µM; TGI (SR leukemia): > 100 µM; TGI (NCI-H460 lung): 87.6 µM; TGI (RPMI-8226 leukemia): 78.5 µM; TGI (A549 NSCLC): > 100 µM; TGI (BT-549 breast): > 100 µM; TGI (ACHN renal): > 100 µM; TGI (KM12 colon): > 100 µM; TGI (SNB-19 CNS): > 100 µM; TGI (COLO 205 colon): > 100 µM; TGI (NCI-H226 lung): > 100 µM; TGI (MCF7 breast): > 100 µM; TGI (786-0 renal): 64.6 µM; TGI (HOP-92 NSCLC): > 100 µM; TGI (NCI-H522 lung): > 100 µM; TGI (MDA-N): > 100 µM; TGI (MOLT-4 leukemia): > 100 µM; TGI (CCRF-CEM leukemia): > 100 µM; TGI (OVCAR-3 ovarian): 78.2 µM; TGI (HCT-116 colon): > 100 µM; TGI (A498 renal): > 100 µM; TGI (MDA-MB-231 breast): > 100 µM; TGI (OVCAR-5 ovarian): > 100 µM; TGI (HOP-62 NSCLC): 95.4 µM; TGI (LOX IMVI melanoma): > 100 µM; TGI (UO-31 renal): > 100 µM; TGI (T-47D breast): 28.9 µM; TGI (SK-MEL-2 melanoma): > 100 µM; TGI (OVCAR-8 ovarian): 42.3 µM; TGI (UACC-62 melanoma): 98 µM; TGI (HL-60(TB) leukemia): > 100 µM; TGI (HS 578T breast): > 100 µM; TGI (HCT-15 colon): > 100 µM; TGI (SK-MEL-5 melanoma): > 100 µM; TGI (RXF 393 renal): > 100 µM; TGI (HT29 colon): > 100 µM; TGI (DU-145 prostate): > 100 µM; TGI (SF-268 CNS): > 100 µM; TGI (SF-539 CNS): > 100 µM; TGI (SNB-75 CNS): > 100 µM; TGI (CAKI-1 renal): > 100 µM; TGI (SW-620 colon): > 100 µM; TGI (EKVX NSCLC): > 100 µM; TGI (OVCAR-4 ovarian): 89.4 µM; TGI (TK-10 renal): > 100 µM
